According to patent US9458102B2 (priority 2011, dated 2016):

How the values were obtained:
adult wild-type mice = assay: ERG in adult wild-type mice during 10-day treatment; type: in vivo, mouse; conditions: similar 10-day treatment
From the text: (§1) In separate experiments on adult wild-type mice, the ERG a and b waves were blocked during a similar 10-day treatment, as expected for a concentration in excess of that required to completely block CNG channels. In the rd10 mouse some degeneration was probably underway before the treatment began.

chymotrypsin = target: T1, chymotrypsin (Bos taurus, UniProt P00766); assay: In vitro hydrolysis by chymotrypsin; type: in vitro ADME
T1 construct: purchased Worthington Biochemical Co
Experimental: All enzymatic assays were performed with 50 μM compound in 0.1M phosphate buffer, pH 7.4, at 37° C. with stirring, unless otherwise noted. Butyrylcholinesterase stock solutions from human serum (Sigma, St. Louis, Mo.) were prepared at 100 U/mL in 0.1 M phosphate buffer, pH 7.4, and stored at −20° C. until use. Hydrolysis was monitored on an 8452A diode array spectrophotometer (Hewlett-Packard). Product peak wavelength absorption was immediately monitored upon addition of compound. Absorbances for complete hydrolysis were determined when there were no further detectable changes. […] All hydrolysis assays were performed in triplicate, and final rate constants are expressed as the mean±SD of the three individually determined rate constants. […] Activity of chymotrypsin (bovine, Worthington Biochemical Co., 190 μg/mL) was verified with 90 μM 4-nitrophenyl acetate in 0.1 M HEPES solution, pH 6.5, at 37° C. with stirring. Hydrolysis product was monitored at 404 nm for 10 min. Activity of proteinase K (from Engyodontium album, Sigma, 165 μg/mL) was verified with 16.5 mg/mL bovine serum albumin in 0.1 M phosphate buffer, pH 7.4, at 37° C. Samples were taken at time point increments up to 2 hours when the reaction reached completion. Samples were analyzed with 12% SDS-PAGE, stained with 0.1% Coomassie Blue.

rd10 mouse = rd10 mouse model of retinal degeneration, intravitreal injection; type: in vivo; conditions: intravitreal injection at P15, final concentration ~0.5 mM, euthanized at P25; PBS in the other eye
Experimental: FIG. 8 is a set of two images of retinal sections from the left eye (left panel) and right eye (right panel) of an rd10 mouse, intravitreally injected with PBS and 5 mM compound 9 (final concentration ^˜0.5 mM), respectively, at P15 and euthanized at P25. Retinas were sectioned at 20 microns, and stained with DAPI. Images are confocal stacks taken very close to the optic nerve. The outer nuclear layers corresponding to photoreceptor cells are shown with white brackets.
(§2) The rd1 mouse is a newer designation for the classic rd mouse, which harbors a nonsense mutation in the PDE6B gene. […] The rd phenotype has been studied for many years, and allows for more rapid assessment of protection strategies. However, the onset of rod photoreceptor death overlaps with the later stages of development and synaptogenesis, making it difficult to distinguish between the primary effects of rod degeneration and the consequences of abnormal neural development. The rd10 phenotype is more reminiscent of typical human RP.
as §1

[1] = target: T2, Butyrylcholinesterase purified from human blood serum (Homo sapiens, UniProt P06276); assay: In vitro hydrolysis by serum cholinesterase (butyrylcholinesterase); type: in vitro ADME; conditions: for hydrolysis product after incubation with butyrylcholinesterase: 24-hour incubation
T2 construct: Butyrylcholinesterase purified from human blood serum; purchased Sigma; host or cells: purified from human blood serum
T2 sequence (P06276 29-602): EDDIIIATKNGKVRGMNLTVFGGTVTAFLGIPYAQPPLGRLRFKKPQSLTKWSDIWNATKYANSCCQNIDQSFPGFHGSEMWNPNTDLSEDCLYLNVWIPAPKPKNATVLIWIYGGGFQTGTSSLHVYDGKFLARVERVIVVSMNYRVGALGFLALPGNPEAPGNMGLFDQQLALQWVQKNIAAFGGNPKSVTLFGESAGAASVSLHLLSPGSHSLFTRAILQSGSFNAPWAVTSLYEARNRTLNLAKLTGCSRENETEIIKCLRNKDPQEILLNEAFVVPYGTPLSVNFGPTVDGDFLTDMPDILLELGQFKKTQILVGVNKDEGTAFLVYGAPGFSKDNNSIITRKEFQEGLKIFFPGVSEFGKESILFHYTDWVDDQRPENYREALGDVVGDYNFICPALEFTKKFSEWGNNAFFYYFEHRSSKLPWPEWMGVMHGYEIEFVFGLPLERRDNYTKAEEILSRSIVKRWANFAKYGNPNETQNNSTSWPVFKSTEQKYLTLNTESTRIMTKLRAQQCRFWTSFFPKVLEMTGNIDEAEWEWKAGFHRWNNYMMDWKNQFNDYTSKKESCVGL
Experimental: Compound 1 is rapidly hydrolyzed by butyrylcholinesterase in the bloodstream. Butyrylcholinesterase purified from human blood serum was used to test the resistance of the disclosed compounds to hydrolysis.
(§3) All enzymatic assays were performed with 50 μM compound in 0.1M phosphate buffer, pH 7.4, at 37° C. with stirring, unless otherwise noted. Butyrylcholinesterase stock solutions from human serum (Sigma, St. Louis, Mo.) were prepared at 100 U/mL in 0.1 M phosphate buffer, pH 7.4, and stored at −20° C. until use. Hydrolysis was monitored on an 8452A diode array spectrophotometer (Hewlett-Packard). Product peak wavelength absorption was immediately monitored upon addition of compound. Absorbances for complete hydrolysis were determined when there were no further detectable changes. […] All hydrolysis assays were performed in triplicate, and final rate constants are expressed as the mean±SD of the three individually determined rate constants. In some experiments with compound 1, samples were taken at the beginning and end of the assay to verify the hydrolysis product and the completion of the reaction by HPLC. These samples were compared to compounds 1 and 3 on a C18 column eluted with 0.1% TFA in water/acetonitrile. Activity of chymotrypsin (bovine, Worthington Biochemical Co., 190 μg/mL) was verified with 90 μM 4-nitrophenyl acetate in 0.1 M HEPES solution, pH 6.5, at 37° C. with stirring. Hydrolysis product was monitored at 404 nm for 10 min. Activity of proteinase K (from Engyodontium album, Sigma, 165 μg/mL) was verified with 16.5 mg/mL bovine serum albumin in 0.1 M phosphate buffer, pH 7.4, at 37° C. Samples were taken at time point increments up to 2 hours when the reaction reached completion. Samples were analyzed with 12% SDS-PAGE, stained with 0.1% Coomassie Blue.

proteinase K = target: T3, proteinase K (Parengyodontium album, UniProt P06873); assay: In vitro hydrolysis by proteinase K; type: in vitro ADME, Engyodontium album
T3 construct: purchased Sigma
T3 sequence (P06873 106-384): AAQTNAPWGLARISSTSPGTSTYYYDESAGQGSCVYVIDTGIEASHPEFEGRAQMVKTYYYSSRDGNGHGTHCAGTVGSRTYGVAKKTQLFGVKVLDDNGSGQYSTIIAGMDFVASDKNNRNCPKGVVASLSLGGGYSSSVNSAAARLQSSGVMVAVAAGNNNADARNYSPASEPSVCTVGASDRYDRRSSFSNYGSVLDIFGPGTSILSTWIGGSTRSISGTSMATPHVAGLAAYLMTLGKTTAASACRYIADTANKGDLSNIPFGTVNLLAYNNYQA
Experimental: Hydrolysis products of 4-nitrophenyl acetate and BSA were detected as positive controls.
as §3

rd1 mouse = rd1 mouse model of retinal degeneration, subretinal injection; type: in vivo; conditions: subretinal injection at P12, estimated final concentration 5 μM, harvested at P17
Experimental: FIG. 9 is a set of four images of retinal sections from an untreated rd1 mouse euthanized at P17 (upper panels) and an rd1 mouse receiving a subretinal injection of 30 μM compound 8 (final concentration ^˜5 μM) at P12 and euthanized at P17 (lower panels). The photographs show standard histological analysis of retinal sections stained with cresol purple. The right panels are expansions of similar regions in each retina near the optic nerve. The white brackets mark the outer nuclear layer containing photoreceptor nuclei.
as §2
FIG. 9 is a comparison of two rd1 eyes, one untreated (upper panel) and one receiving a subretinal injection of compound 8 to an estimated final concentration of 5 μM at P12. […] Indeed, the entire retina was healthier in appearance in the treated eye.

For CCCCCCCCNc1ccc(C(=S)NCCN(C)C)cc1 [Compound 9, 4-(Octylamino)-N-(2-(dimethylamino)ethyl)benzothioamide], which “ERG a and b waves” value (adult wild-type mice) is on record?
Its value is “blocked”.

What about the “hydrolysis products with chymotrypsin” value (chymotrypsin) of the same compound?
The value was “not able to generate any detectable hydrolysis products”.

What about the “neuroprotection of the photoreceptor layer” value (rd10 mouse) of the same compound?
Its value is “striking neuroprotection of the photoreceptor layer”.

And the “hydrolysis product after incubation with butyrylcholinesterase” value [1]?
Its value is “no hydrolysis product was detected”.

And the “hydrolysis products with proteinase K” value (proteinase K)?
The value was “not able to generate any detectable hydrolysis products”.

CCCCNc1ccc(C(=S)NCCN(C)C)cc1 [Compound 8, 4-(Butylamino)-N-(2-(dimethylamino)ethyl)benzothioamide] was tested. Which “hydrolysis products with chymotrypsin” value (chymotrypsin) did it give?
Its value is “not able to generate any detectable hydrolysis products”.

What about the “rescuing effect on retina” value (rd1 mouse) of the same compound?
The value was “very noticeable rescuing effect”.

And the “outer nuclear layer thickness” value (rd1 mouse; untreated eye one cell thick)?
The value was “about three cells thick”.

What about the “hydrolysis product after incubation with butyrylcholinesterase” value [1] of the same compound?
Its value is “no hydrolysis product was detected”.

What about the “hydrolysis products with proteinase K” value (proteinase K) of the same compound?
Its value is “not able to generate any detectable hydrolysis products”.

Which Hydrolysis rate ([1]; 50 μM compound, 0.1M phosphate buffer pH 7.4, 37° C., mean±SD of triplicate) does the source give for CCCCCCCCNc1ccc(C(=O)OCCN(C)C)cc1 [Compound 5, 2-(Dimethylamino)ethyl 4-(Octylamino)benzoate, reference compound] here?
The Hydrolysis rate was 213 ± 31 nmol/min/mg.
